In patent US7667052B2 (Eisai R&D Management Co., Ltd., priority 2003, dated 2010):
Values after ≈ are worked out from the molar mass of the structure shown.

Legend:
[1] = system: VEGF production in U251 human glioma cell; assay: VEGF production suppressing action under low oxygen, ELISA; format: cell-based; details: U251, low oxygen stimulation
Protocol: U251 human glioma cell cultured in DULBECCO-modified eagle medium (DMEM; manufactured by SIGMA Co., Ltd.) containing 10% fetal calf serum, penicillin (100 unit/ml) and streptomycin (100 μg/ml) was dispensed in 96-well plates by 4×10^4 cells/well. After culturing at 37° C. overnight in a CO2 incubator (5% CO2), the media were removed, and 180 μl of the above-mentioned incubation solution was charged. After adding 20 μL of the above-mentioned incubation solution containing the test compound diluted with 3-fold succession, they were incubated in a low oxygen (2% O2) incubator for 18 hours. The supernatants thereof were measured by an ELISA kit (Immunobiology Research Institute).
Concentration at which the amount of VEGF expressed by low oxygen stimulation was suppressed to 50% (IC50 value) was determined and results are shown in Table 9. […] The activities of 11107F and 11107G were very weak.

[2] = system: VEGF production in DU145 human colon cancer cell; assay: VEGF production suppressing action in various carcinoma cells, ELISA; format: cell-based; details: DU-145, low oxygen 18 hours
Protocol: (§1) WiDr human colon cancer cell, PC3 human prostate cancer cell, DU145 human […] cancer cell and HT1080 human […] cancer cell, which were cultured in DULBECCO-modified eagle medium (manufactured by DMEM SIGMA Co., Ltd.) containing 10% fetal calf serum, penicillin (100 unit/ml) and streptomycin (100 μg/ml) were dispensed in 96 well plates by 3×10^4 cells/well. After culturing at 37° C. overnight in a CO2 incubator (5% CO2), the media were removed, and 180 μl of the above-mentioned incubation solution was charged. After adding 20 μL of the above-mentioned incubation solution containing the test compound diluted with 3-fold succession, they were incubated in a low oxygen ([…]) incubator for 18 hours. The supernatants thereof were measured by an ELISA kit (Immunobiology Research Institute).
(§2) Concentration at which the amount of VEGF expressed by low oxygen stimulation was suppressed to 50% (IC50 value) was determined and results are shown in Table 10.

[3] = system: VEGF production in HT1080; assay: as above; format: cell-based; details: Homo sapiens; HT 1080, low oxygen 18 hours
Protocol: as §1, §2

[4] = system: VEGF production in PC3 human prostate cancer cell; assay: as above; format: cell-based; details: PC 3, low oxygen 18 hours
Protocol: as §1, §2

[5] = system: VEGF production in WiDr human colon cancer cell; assay: as above; format: cell-based; details: low oxygen 18 hours
Protocol: as §1, §2

[6] = system: human breast cancer BSY-1 cell; assay: Solid cancer proliferation suppressing action, subcutaneous transplant; format: in vivo, mice; details: single administration, 10 mg/kg intravenous
Protocol: In order to study solid cancer proliferation suppressing action of 11107B in vivo, human breast cancer BSY-1 cell was transplanted to the subcutaneous body sides of mice. The animals were grouped so that the average of the volumes of the respective groups became uniform, when it reached about 100 mm^3. Control group was made as 10 mice and 11107B-administering groups were made as 5 mice. 11107B was administrated for the 11107B-administering groups once by intravenous injection so as to be 10 mg/kg, and a vehicle was administered to the control group. The tumor volumes on the fifth day, eighth day, 12th day and 15th day were measured, and relative tumor volumes were determined setting the tumor volume at the initiation of administration as 1.

[7] = system: Dami human blood megakaryocytic cell; assay: Growth suppressing activity to leukemia cell, Alamar Blue; format: cell-based; details: 72 h, 3 days, read-out: Multiplication suppressing activity IC50
Protocol: (§3) Dami human blood megakaryocytic cell, MOLT 4 human acute lymphoblastic cell, K562 human chronic myelogenous cell, U937 human histcytic lymphoma and p388 mouse lymphoma cultured in RPMI 1640 (manufactured by SIGMA Co., Ltd.) containing 10% fetal calf serum were dispensed in 96-well plates by 2×10^3 cells/180 μl, and they were cultured at 37° C. overnight in a CO2 incubator (5% CO2). Then, 20 μL of the above-mentioned incubation solution containing 11107B diluted with 2-fold succession was added, and they were further cultured in a CO2 incubator for 3 days.
(§4) 20 μL of Alamar Blue reagent (Biosource Co.) was added to the cultured cell, and fluorescence activity (ex 530 nm/em 590 nm) was measured by a micro plate reader (ARBO, Perkin-Elmer Co.) after 3 to 5 hours. The cell growth of the control to which the compound is not added is set as 100%, the concentration at which it was suppressed by 50% was determined.

[8] = system: K562 human chronic myelogenous cell; assay: as above; format: cell-based; details: 72 h, K562, 3 days, read-out: Multiplication suppressing activity IC50
Protocol: as §3, §4

[9] = system: MOLT 4 human acute lymphoblastic cell; assay: as above; format: cell-based; details: MOLT-4, 72 h, MOLT4, 3 days, read-out: Multiplication suppressing activity IC50
Protocol: as §3, §4

[10] = system: U937 human histcytic lymphoma; assay: as above; format: cell-based; details: U-937, 72 h, U937, 3 days, read-out: Multiplication suppressing activity IC50
Protocol: as §3, §4

p388 mouse lymphoma = assay: as above; format: cell-based; details: 72 h, p388, 3 days, read-out: Multiplication suppressing activity IC50
Protocol: as §3, §4

[11] = system: H460, U251, BSY-1, MDA-MB435, PC-3, DU145, OVCAR-3, WiDr and B16 melanoma cells; assay: Growth suppressing activity to various cancer cells, Alamar Blue; format: cell-based, human; mouse; details: 72 h; range over nine cancer cell lines, 3 days; read-out: growth suppressing activity IC50 values for the studied cell lines
Protocol: H460 human lung cancer cell, U251 human glioma cell, BSY-1 and MDA-MB435 human breast cancer cell, PC-3 and DU145 human prostate cancer cell, OVCAR-3 human ovarian cancer cell, WiDr human colon cancer cell and B16 melanoma mouse melanoma cell cultured in DMEM (manufactured by SIGMA Co., Ltd.) containing 10% fetal calf serum were dispensed in 96-well plates by 2×10^3 cells/180 μl, and they were cultured at 37° C. overnight in a CO2 incubator (5% CO2). Then, 20 μL of the above-mentioned incubation solution containing test compounds diluted with 2-fold succession was added, and they were further cultured in a CO2 incubator for 3 days.
as §4, with “cells,” for “cell,”, “and after 3 to 5 hours,” for “and”, “Co.).” for “Co.) after 3 to 5 hours.”

Compound: CCC(O)C(C)C1OC1CC(C)/C=C/C=C(\C)C1OC(=O)CC(O)CCC(C)(O)C(OC(C)=O)/C=C/C1C (stereo not drawn) [11107B]
- VEGF production suppression, in words [1]: suppressed most strongly VEGF production
- IC50 [2]: 1.05 ng/mL (≈ 1.96 nM)
- IC50 [3]: 1.89 ng/mL (≈ 3.52 nM)
- IC50 [4]: 0.71 ng/mL (≈ 1.32 nM)
- IC50 [5]: 0.65 ng/mL (≈ 1.21 nM)
- solid tumor suppression, in words [6]: showed the effect of suppressing solid tumor
- IC50 [7]: 1.2 nM
- IC50 [8]: 2.1 nM
- IC50 [9]: 1.5 nM
- IC50 [10]: 1.1 nM
- IC50 (p388 mouse lymphoma): 2 nM
- IC50 [11]: 0.9 to 2.9 nM
